Data: patent publication US7820669B2 (NYCOMED GmbH, priority 2004, dated 2010)

Experiments:
PDE4B2 = target: T1, PDE4B2 (Homo sapiens, UniProt Q07343); assay: Inhibition of PDE4B2 activity, modified [3H]cAMP SPA (scintillation proximity assay) test; format: biochemical; settings: recombinant PDE4B2 expressed in SF21 insect cells; 0.5 μM cAMP; 15 min at 37° C.; read-out: PDE4 Inhibition [measured as -logIC50 (mol/l)] (converted)
T1 construct: made in house; host or cells: SF21 insect cells (baculovirus generated in SF9 cells, pCR-Bac vector)
Procedure: PDE4B2 (GB no. M97515) was a gift of Prof. M. Conti (Stanford University, USA). It was amplified from the original plasmid (pCMV5) via PCR with primers Rb9 (5′-[…]-3′) and Rb10 (5′-[…]-3′) and cloned into the pCR-Bac vector (Invitrogen, Groningen, NL).
The recombinant baculovirus was prepared by means of homologous recombination in SF9 insect cells. The expression plasmids were cotransfected with Bac-N-Blue (Invitrogen, Groningen, NL) or Baculo-Gold DNA (Pharmingen, Hamburg) using a standard protocol (Pharmingen, Hamburg). Wt vrus-free recombinant virus supernatants were selected using plaque assay methods. After that, high-titre virus supernatants were, prepared by amplifying 3 times. PDE4B2 was expressed in SF21 cells by infecting 2×10^6 cells/ml with an MOI (multiplicity of infection) between 1 and 10 in serum-free SF900 medium (Life Technologies, Paisley, UK). The cells were cultured at 28° C. for 48-72 hours, after which they were pelleted for 5-10 min at 1000 g and 4° C.
The SF21 insect cells were resuspended, at a concentration of approx. 10^7 cells/ml, in ice-cold (4° C.) homogenization buffer (20 mM Tris, pH 8.2, containing the following additions: 140 mM NaCl, 3.8 mM KCl, 1 mM EGTA, 1 mM MgCl2, 10 mM β-mercaptoethanol, 2 mM benzamidine, 0.4 mM Pefablock, 10 μM leupeptin, 10 μM pepstatin A, 5 μM trypsin inhibitor) and disrupted by ultrasonication. The homogenate was then centrifuged for 10 min at 1000×g and the supernatant was stored at −80° C. until sub-sequent use (see below). The protein content was determined by the Bradford method (BioRad, Munich) using BSA as the standard.
PDE4B2 activity was inhibited by the compounds according to the invention in a modified SPA (scintillation proximity assay) test, supplied by Amersham Biosciences (see procedural instructions “phosphodiesterase [3H]cAMP SPA enzyme assay, code TRKQ 7090”), carried out in 96-well microtitre plates (MTP's). The test volume is 100 μl and contains 20 mM Tris buffer (pH 7.4), 0.1 mg of BSA (bovine serum albumin)/ml, 5 mM Mg^2+, 0.5 μM cAMP (including about 50,000 cpm of [3H]cAMP), 1 μl of the respective substance dilution in DMSO and sufficient recombinant PDE (1000×g supernatant, see above) to ensure that 10-20% of the cAMP is converted under the said experimental conditions. […] After a preincubation of 5 min at 37° C., the reaction is started by adding the substrate (cAMP) and the assays are incubated for a further 15 min; after that, they are stopped by adding SPA beads (50 μl). In accordance with the manufacturer's instructions, the SPA beads had previously been resuspended in water, but were then diluted 1:3 (v/v) in water; the diluted solution also contains 3 mM IBMX to ensure a complete PDE activity stop. After the beads have been sedimented (>30 min), the MTP's are analyzed in commercially available luminescence detection devices. The corresponding IC50 values of the compounds for the inhibition of PDE4B2 activity are determined from the concentration-effect curves by means of non-linear regression.

T1 sequence (Q07343 1-564 isoform Q07343-2): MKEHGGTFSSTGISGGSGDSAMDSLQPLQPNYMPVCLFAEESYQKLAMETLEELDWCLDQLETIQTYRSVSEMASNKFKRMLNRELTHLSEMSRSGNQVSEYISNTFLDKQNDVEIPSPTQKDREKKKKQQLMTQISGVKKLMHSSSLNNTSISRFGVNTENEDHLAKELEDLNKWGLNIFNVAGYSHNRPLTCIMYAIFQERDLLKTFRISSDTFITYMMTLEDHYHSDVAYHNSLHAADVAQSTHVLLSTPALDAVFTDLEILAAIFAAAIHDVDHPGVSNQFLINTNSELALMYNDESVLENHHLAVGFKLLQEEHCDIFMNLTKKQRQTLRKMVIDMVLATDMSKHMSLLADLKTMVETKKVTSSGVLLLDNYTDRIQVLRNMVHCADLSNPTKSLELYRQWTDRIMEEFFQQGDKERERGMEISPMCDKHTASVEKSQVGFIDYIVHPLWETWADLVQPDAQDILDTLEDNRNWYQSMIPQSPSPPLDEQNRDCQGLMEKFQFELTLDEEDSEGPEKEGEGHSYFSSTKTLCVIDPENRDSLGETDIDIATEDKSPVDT

Row | Compound | IC50 (PDE4B2) [pM] | melting point [°C]
1 | COc1ccc(C2=NN(C3CCN(C(=O)CN4C(=O)CCC4=O)CC3)C(=O)C(C)(C)C2)c2c1OC(C)(C)C2 [Compound 20, 1-(2-{4-[3-(7-Methoxy-2,2-dimethyl-2,3-dihydro-benzofuran-4-yl)-5,5-dimethyl-6-oxo-5,6-dihydro-4H-pyridazin-1-yl]-piperidin-1-yl}-2-oxo-ethyl)-pyrrolidine-2,5-dione] |  | 240 to 241
2 | COc1ccc(C2=NN(C3CCN(C(=O)CN4CCN(C)CC4)CC3)C(=O)C(C)(C)C2)c2c1OC(C)(C)C2 [Compound 19, 6-(7-Methoxy-2,2-dimethyl-2,3-dihydro-benzofuran-4-yl)-4,4-dimethyl-2-{1-[2-(4-methyl-piperazin-1-yl)-ethanoyl]-piperidin-4-yl}-4,5-dihydro-2H-pyridazin-3-one] |  | 121 to 123
3 | COc1ccc(C2=NN(C3CCN(C(=O)CN4C(=O)c5ccccc5C4=O)CC3)C(=O)C(C)(C)C2)cc1OC [Compound 21, 2-(2-{4-[3-(3,4-Dimethoxy-phenyl)-5,5-dimethyl-6-oxo-5,6-dihydro-4H-pyridazin-1-yl]-piperidin-1-yl}-2-oxo-ethyl)-isoindole-1,3-dione] |  | 193 to 194
4 | COc1ccc(C2=NN(C3CCN(S(=O)(=O)c4cccc(C)c4)CC3)C(=O)C(C)(C)C2)cc1OC [Compound 11, 6-(3,4-Dimethoxy-phenyl)-4,4-dimethyl-2-[1-(toluene-3-sulfonyl)-piperidin-4-yl]-4,5-dihydro-2H-pyridazin-3-one] |  | 150 to 152
5 | COc1ccc(C2=NN(C3CCN(S(=O)(=O)c4ccccc4OC(F)(F)F)CC3)C(=O)C(C)(C)C2)cc1OC [Compound 7, 6-(3,4-Dimethoxy-phenyl)-4,4-dimethyl-2-[1-(2-trifluoromethoxy-benzenesulfonyl)-piperidin-4-yl]-4,5-dihydro-2H-pyridazin-3-one] | 2290 | 143 to 144
6 | COc1ccc(C2=NN(C3CCN(S(=O)(=O)c4ccccc4C#N)CC3)C(=O)C(C)(C)C2)cc1OC [Compound 1] | 295 | 190 to 192
7 | COc1ccc(C2=NN(C3CCN(S(=O)(=O)c4ccccc4C)CC3)C(=O)C(C)(C)C2)cc1OC [Compound 5, 6-(3,4-Dimethoxy-phenyl)-4,4-dimethyl-2-[1-(toluene-2-sulfonyl)-piperidin-4-yl]-4,5-dihydro-2H-pyridazin-3-one] | 741 | 132 to 133
8 | COc1ccc(C2=NN(C3CCN(CC(N)=O)CC3)C(=O)C(C)(C)C2)cc1OC [Compound 3] | 1860 | 
9 | COc1ccc(C2=NN(C3CCN(S(=O)(=O)c4cccc(C#N)c4)CC3)C(=O)C(C)(C)C2)cc1OC [Compound 9, 3-{4-[3-(3,4-Dimethoxy-phenyl)-5,5-dimethyl-6-oxo-5,6-dihydro-4H-pyridazin-1-yl]-piperidine-1-sulfonyl}-benzonitrile] |  | 158 to 160

Other lines, results leading:

Row | IC50 (PDE4B2) [pM] | melting point [°C] | Compound
10 | 355 | 156 to 157 | CCC1(CC)CC(c2ccc(OC)c(OC)c2)=NN(C2CCN(S(=O)(=O)c3ccccc3C#N)CC2)C1=O [Compound 16, 2-{4-[3-(3,4-Dimethoxy-phenyl)-5,5-diethyl-6-oxo-5,6-dihydro-4-pyridazin-1-yl]-piperidin-1-sulfonyl}-benzonitrile]
11 | 6170 | 69 to 74 | CCC1(CC)CC(c2ccc(OC)c(OC)c2)=NN(C2CCN(CC(N)=O)CC2)C1=O.Cl [Compound 15, 2-{4-[3-(3,4-Dimethoxy-phenyl)-5,5-diethyl-6-oxo-5,6-dihydro-4H-pyridazin-1-yl]-piperidin-1-yl}-acetamide Hydrochloride]
12 | 417 | 215 to 216 | COc1ccc(C2=NN(C3CCN(CC(N)=O)CC3)C(=O)C(C)(C)C2)c2c1OC(C)(C)C2 [Compound 13, 2-{4-[3-(7-Methoxy-2,2-dimethyl-2,3-dihydro-benzofuran-4-yl)-5,5-dimethyl-6-oxo-5,6-dihydro-4H-pyridazin-1-yl]-piperidin-1-yl}-acetamide]
13 |  | 172 to 174 | COc1ccc(C2=NN(C3CCN(S(=O)(=O)N(C)C)CC3)C(=O)C(C)(C)C2)cc1OC [Compound 12, 4-[3-(3,4-Dimethoxy-phenyl)-5,5-dimethyl-6-oxo-5,6-dihydro-4H-pyridazin-1-yl]-piperidine-1-sulfonic Acid Dimethylamide]
14 |  | 160 to 161 | CCC1(CC)CC(c2ccc(OC)c(OC)c2)=NN(C2CCN(C(=O)c3ccccc3)CC2)C1=O [Compound 14, 6-(3,4-Dimethoxy-phenyl)-4,4-diethyl-2-[1-(1-phenyl-methanoyl)-piperidin-4-yl]-4,5-dihydro-2H-pyridazin-3-one]
15 | 209 | 157 to 159 | COc1ccc(C2=NN(C3CCN(C(=O)c4ccccc4OC)CC3)C(=O)C(C)(C)C2)cc1OC [Compound 8, 6-(3,4-Dimethoxy-phenyl)-2-{1-[1-(2-methoxy-phenyl)-methanoyl]-piperidin-4-yl}-4,4-dimethyl-4,5-dihydro-2H-pyridazin-3-one]
16 |  | 160 to 162 | CCC1(CC)CC(c2ccc(OC)c(OC)c2)=NN(C2CCN(C(=O)c3ccccc3OC)CC2)C1=O [Compound 18, 6-(3,4-Dimethoxy-phenyl)-4,4-diethyl-2-{1-[1-(2-methoxy-phenyl)-methanoyl]-piperidin-4-yl}-4,5-dihydro-2H-pyridazin-3-one]
17 |  | 161 to 163 | COc1ccc(C2=NN(C3CCN(S(=O)(=O)c4ccc(C#N)cc4)CC3)C(=O)C(C)(C)C2)cc1OC [Compound 6, 4-{4-[3-(3,4-Dimethoxy-phenyl)-5,5-dimethyl-6-oxo-5,6-dihydro-4H-pyridazin-1-yl]-piperidine-1-sulfonyl}-benzonitrile]
18 | 25100 | 211 to 213 | COc1ccc(C2=NN(C3CCN(CCC(=O)N4CCOCC4)CC3)C(=O)C(C)(C)C2)cc1OC.Cl [Compound 2, 6-(3,4-Dimethoxy-phenyl)-4,4-dimethyl-2-[1-(3-morpholin-4-yl-3-oxo-propyl)piperidin-4-yl]-4,5-dihydro-2H-pyridazin-3-one Hydrochloride]
19 |  | 161 to 164 | COc1ccc(C2=NN(C3CCN(S(=O)(=O)c4ccc(C)cc4)CC3)C(=O)C(C)(C)C2)cc1OC [Compound 10, 6-(3,4-Dimethoxy-phenyl)-4,4-dimethyl-2-[1-(toluene-4-sulfonyl)-piperidin-4-yl]-4,5-dihydro-2H-pyridazin-3-one]
20 | 1290 | 177 to 179 | COc1ccc(C2=NN(C3CCN(C(=O)CN4C(=O)CCC4=O)CC3)C(=O)C(C)(C)C2)cc1OC [Compound 4, 1-(2-{4-[3-(3,4-Dimethoxy-phenyl)-5,5-dimethyl-6-oxo-5,6-dihydro-4H-pyridazin-1-yl]-piperidin-1-yl}-2-oxo-ethyl)-pyrrolidine-2,5-dione]
21 | 646 | 210 to 211 | COc1ccc(C2=NN(C3CCN(C(=O)CN4C(=O)COCC4=O)CC3)C(=O)C(C)(C)C2)cc1OC [Compound 17, 4-(2-{4-[3-(3,4-Dimethoxy-phenyl)-5,5-dimethyl-6-oxo-5,6-dihydro-4H-pyridazin-1-yl]-piperidin-1-yl}-2-oxo-ethyl)-morpholine-3,5-dione]
